# Data taken from the METLIN SMRT retention time set (Domingo-Almenara et al. 2019).
# Assay: gradient 5% acetonitrile 3 min, to 50% in 2 min, to 85% in 15 min, held 3 min, 100 µL/min
# Conditions: column: Zorbax Extend-C18 2.1 x 50 mm; eluents: water / acetonitrile, 0.1% formic acid
# Method in brief: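 Data were gathered over 3 months by HPLC coupled to a quadrupole time-of-flight mass spectrometer, operated in positive and negative ionization mode. Mixtures of ~100 pure standards ran on a Zorbax Extend-C18 column (2.1 × 50 mm, 1.8 μm) at 100 μL/min, with water and acetonitrile each containing 0.1% formic acid and dead and dwell volumes of 40 μL and 900 μL. Retention time was read from adduct peaks picked by computer and checked manually.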
row,RP-LC retention time,Structure (SMILES)
1,852 s,Cc1cccc(-n2c(=O)c3c(cc(C)n3C)n(CC(=O)Nc3ccccc3)c2=O)c1
2,998 s,CCc1nc(-c2cc(S(=O)(=O)NCC(=O)NC3CCCc4ccccc43)c(C)s2)no1 (stereo not drawn)
3,980 s,O=S(=O)(NCCc1noc(-c2ccccc2)n1)c1ccc(Cl)cc1
4,694 s,O=C1CC(CNS(=O)(=O)c2cccnc2)CN1c1ccc(Cl)cc1 (stereo not drawn)
5,686 s,CCOC(=O)c1ccc(NC(=O)Cn2cnc3nc(-c4cccnc4)ncc3c2=O)cc1
6,1210 s,COc1ccc(C(=S)N2CCN(c3cccc(Cl)c3)CC2)cc1
7,852 s,COc1ccc(OCc2nc(CCN(C)C(=O)COc3ccccc3)no2)cc1
8,726 s,Cn1cc(C(CNC(=O)Nc2ccccc2Cl)c2cccnc2)c2ccccc21 (stereo not drawn)
9,640 s,CC(C)n1cnnc1CC1CN(C(=O)Nc2ccccc2Cl)C1
10,1280 s,CCCc1ccc(S(=O)(=O)N2CCC(c3noc(-c4cccc(OC)c4)n3)CC2)cc1
11,868 s,O=C(NC1CCCC1)N1CCC(c2noc(-c3ccccc3)n2)C1 (stereo not drawn)
12,594 s,O=C(CCc1csc2nc(C3CC3)cn12)Nc1nc2ccccc2s1
13,818 s,O=C(CSc1nc(-c2ccccc2Cl)ns1)Nc1nccs1
14,684 s,O=C1[C@H]2CN(Cc3cc(Cl)ccc3F)C[C@H]2C(=O)N1CCN1CCc2ccccc2C1
15,797 s,CCn1cnc(S(=O)(=O)N2CCC(C(=O)NCc3ccc(C)cc3)CC2)c1
16,722 s,CN(C)c1cc(C(=O)NC2CC2)c2cc(F)ccc2n1
17,536 s,Cn1cnc(S(=O)(=O)N2CCN(c3ccccn3)CC2)c1
18,866 s,Cc1ccc(CN2CCN(CC(=O)N3CCN(c4cccc(Cl)c4)CC3)C(=O)C2=O)cc1
19,614 s,CN(C)c1ccc(C(=O)N2CCC(c3cc(N)on3)CC2)cc1
20,535 s,COc1cccc(NC(=O)N2CCC(c3nc4ccncc4n3C(C)C)C2)c1 (stereo not drawn)
21,652 s,CC(=O)Nc1cc(C(=O)NCCC2=CCCCC2)c2ccc(C)nc2c1
22,886 s,Cc1nc(C)c(C(=O)Nc2nc(-c3ccccc3)cs2)s1

row,RP-LC retention time,Structure (SMILES)
1,668 s,O=C(Nc1cccc(Br)c1)N1CCC(n2cnnc2C2CC2)C1 (stereo not drawn)
2,769 s,COC(=O)c1c(NCc2ccc(F)cc2F)c2cc(F)ccc2[nH]c1=O
3,764 s,CCOc1cc(-c2ccc(C)cc2)nc2ccc(NC(=O)c3ccco3)cc12
4,592 s,CCCN(Cc1ccc(OC)c(OC)c1)Cc1cc(=O)n2ccccc2n1
5,766 s,COc1ccc(Cl)cc1NC(=O)CSc1ccc2nnc(-c3cccs3)n2n1
6,690 s,CCOCCCNC(=O)NC1CCN(c2nc3ccccc3n(C)c2=O)CC1
7,735 s,O=C(CC1c2ncccc2C(=O)N1Cc1ccc(F)cc1)NCc1cc(F)ccc1F (stereo not drawn)
8,844 s,CCN1N=C(C(=O)N2CCC(C)CC2)S(=O)(=O)c2ccccc21
9,1080 s,CCOC(=O)c1noc2ncnc(Nc3cc(Cl)ccc3OC)c12
10,1000 s,CCN(Cc1ccccc1)C(=O)Cn1nc(C)c2sc(-c3ccccc3)nc2c1=O
11,866 s,COc1ccc(S(=O)(=O)CCc2nc(-c3cccc(-c4ccnn4C)c3)no2)cc1
12,700 s,COc1ccc(OC)c(CNC(=O)Cc2nnc(-c3cccs3)o2)c1
13,1170 s,O=S(=O)(c1ccc(Br)cc1)N1CCc2nc(-c3ccc(F)cc3)ncc2C1
14,984 s,CCNC(=O)N1CCc2c([nH]c3ccc(OC)cc23)C12C(=O)N(C)c1ccccc12 (stereo not drawn)
15,1260 s,CCc1ccc(CNC(=O)C2CCCN(c3nc4c(s3)c(C)nn4-c3ccc(C)cc3)C2)cc1 (stereo not drawn)
16,664 s,O=C(c1ccc(N2CCCC2)c(S(=O)(=O)N2CCCC2)c1)N1CCN(c2ccccn2)CC1
17,1020 s,Cc1cc(NC(=O)c2cn(-c3ccc(C#N)cc3)cn2)ccc1Br
18,642 s,COc1ccc(N2CCN(c3nc(C(=O)NCCN4CCCCC4)cs3)CC2)cc1
19,881 s,CC(Cc1cccs1)NC(=O)NCc1cccc2ccccc12 (stereo not drawn)
20,847 s,CCCS(=O)(=O)c1nc2ccc(NS(=O)(=O)c3ccc4c(c3)oc(=O)n4C)cc2s1
21,593 s,CCCCOCCCNCc1ccc2c(c1)n(C)c(=O)n2C
22,1030 s,CCCCCCCCN[C@H](C)[C@@H](O)c1ccc(SC(C)C)cc1

row,RP-LC retention time,Structure (SMILES)
1,776 s,NC(=O)c1cc(-c2ccc(F)cc2)nc2ccccc12
2,757 s,CCOc1ccccc1CNC(=O)C1CCN(S(=O)(=O)c2ccc3c(c2)NC(=O)CO3)CC1
3,597 s,CCN1CCN(c2cc(C)c3cc(NC(=O)COc4ccc(OC)cc4)ccc3n2)CC1
4,1110 s,CCOC(=O)c1[nH]c(C)c(C(=O)C(C)N(CCC(C)C)C(=O)c2ccc(C)cc2)c1C (stereo not drawn)
5,1030 s,CSc1ccc(-c2noc(Cn3nc(-c4ccccc4Cl)ccc3=O)n2)cc1
6,779 s,Cc1cc(C)n2nc(CN(C(=O)c3cccs3)c3ccc(F)cc3)nc2n1
7,856 s,CC(NC(=O)C(=O)NCc1nc(-c2ccccc2)no1)c1ccccc1 (stereo not drawn)
8,657 s,O=C(Nc1ccccc1Br)N1CCN(CCn2c(C(F)(F)F)nc3cccnc32)CC1
9,693 s,COc1cc(NC(=O)NCCc2nc3cccnc3n2C2CCCCC2)cc(OC)c1OC
10,659 s,O=C(CCC(=O)N1CCN(c2ccc(=O)n(-c3ccc(Cl)cc3)n2)CC1)N1CCOCC1
11,696 s,N#Cc1ccccc1OCC(O)CNCCNC(=O)Nc1ccccc1 (stereo not drawn)
12,802 s,COc1ccc(NC(=O)CSc2nc3ccccc3nc2C)cc1
13,632 s,Cc1nnc(-c2ccc3ccn(CC(=O)NCc4ccc(N(C)C)cc4)c3c2)o1
14,629 s,COc1cc2c(cc1CNC(=O)Cn1cnc3cc4c(cc31)OCCO4)OCCCO2
15,866 s,CCOC(=O)c1cccc(NS(=O)(=O)c2cc(-c3cc(C)[nH]n3)ccc2C)c1
16,597 s,Cc1nc(C)c(C(=O)NC2CCc3nn(CC4CC4)c(=O)n3CC2)s1 (stereo not drawn)
17,618 s,CCOc1ccc(N2CC(c3nc4ccccc4n3CCN3CCOCC3)CC2=O)cc1 (stereo not drawn)
18,838 s,Cc1cccc(-c2noc(Cn3ccn(-c4ccccc4)c(=O)c3=O)n2)c1
19,872 s,O=C(Cc1ccc(Cl)cc1)N1CCN(c2ncccc2-c2nnc(C3CC3)o2)CC1
20,736 s,Cc1ccc(-c2nnc3ccc(N4CCC(C(=O)NC5CC5)CC4)nn23)cc1
21,1220 s,CCc1ccc(-n2nc(C)c3c(C(F)(F)F)cc(OCC(=O)N4CCCC4)nc32)cc1
22,840 s,O=C(Cn1c(=O)c2cccn2c2ccc(F)cc21)N1CCCCCC1

row,RP-LC retention time,Structure (SMILES)
1,1220 s,Cc1nc(-c2cc(S(=O)(=O)N3CCCCC3C)c(C)s2)sc1C (stereo not drawn)
2,1020 s,Cc1ccc(-c2csc(-c3cccn3CC(=O)NCC3CCCO3)n2)cc1 (stereo not drawn)
3,746 s,O=C(N[C@H]1C[C@@H]2C[C@H]1N(C(=O)Cc1cccs1)C2)c1ccccc1
4,641 s,Cc1ccc(C)c2c(=O)c3c([nH]c12)CCN(CC(=O)Nc1ccccc1F)C3
5,1000 s,O=C(Nc1nc(-c2ccc(F)cc2)cs1)c1c(-c2ccccc2)nc2n1CCS2(=O)=O
6,654 s,O=C(CCc1c(-c2ccc(Cl)cc2)nc2ccccn12)NCc1ccc2c(c1)OCO2
7,588 s,CCn1c(CC2CCN(C(=O)NCCc3ccccc3)C2)nc2cccnc21 (stereo not drawn)
8,666 s,O=C(CCc1c(-c2ccccc2)nc2ccccn12)NC1CCCCCC1
9,790 s,CCC(C)Nc1nc(NC)nc(-n2cnc(SC)n2)n1 (stereo not drawn)
10,982 s,Cc1ccc(S(=O)(=O)C2=C(O)C(=O)N(Cc3ccco3)C2c2ccc(Cl)cc2)cc1 (stereo not drawn)
11,1310 s,O=C(N1CC(Oc2cccc(-c3nc(-c4ccccc4)no3)c2)C1)C1(c2ccccc2)CC1
12,718 s,O=C(CCC(=O)N1CCN(C(c2ccccc2)c2ccccc2)CC1)Nc1noc2ccccc12
13,719 s,Cc1ncsc1C1N(C2CCN(C(=O)c3ccoc3)CC2)C(=O)C12CCCC2 (stereo not drawn)
14,1330 s,Cc1cc(NC(=O)c2c(F)cccc2Cl)n(-c2nc(-c3ccccc3)cs2)n1
15,1310 s,Cc1ccc(Sc2nccnc2N2CCC(C(=O)N3CCN(c4cccc(C)c4)CC3)CC2)cc1
16,746 s,CN(C(=O)C(=O)Nc1ccc2nc3n(c(=O)c2c1)CCCCC3)c1ccccc1F
17,927 s,Cc1oc(C(=O)O)cc1COc1ccc2c(oc(=O)c3ccccc32)c1C
18,847 s,Cc1ccc(C)c(C(=O)N2CCN(c3cc(-c4cccs4)[nH]n3)CC2)c1
19,1120 s,O=C(CCn1c(=O)sc2ccccc21)Nc1nc(-c2ccc(Br)cc2)cs1
20,850 s,CCC(C)NC(=O)CN1C(=O)C2CCCCN2c2ccc(S(=O)(=O)N3CCCC3)cc21 (stereo not drawn)
21,823 s,CCOCCCNC(=O)C(CC)n1nc(C)c2nn(-c3ccccc3)c(C)c2c1=O (stereo not drawn)

row,Structure (SMILES),RP-LC retention time
1,O=C(COc1ccc(F)cc1)N1CCN(CC(F)(F)F)CC1,771 s
